Measured values taken from PMC11879280, “Antimicrobial activity of peptoids against Metallo-β-lactamase-producing Klebsiella pneumoniae, Acinetobacter baumannii, Pseudomonas aeruginosa, and other WHO priority pathogens, including Candida auris” (Journal of Applied Microbiology, 2025).

Assays:
[1] = test system: En. cloacae 001; conditions: En. cloacae 001; CAMHB, 37°C, 16–20 h
Description: (§1) Briefly, bacteria were suspended in cation-adjusted Mueller–Hinton broth (CAMHB; Oxoid, UK) for antibiotics, or MHB (Oxoid, UK) for peptidomimetics to obtain 5 × 10^5 colony forming unit (CFU) ml^−1. […] Positive controls contained only microbes, and blanks contained only media. Microbial suspensions (100 µl) were added to wells, plates wrapped, and incubated at 37°C, 120 rpm for 16–20 h. After incubation, suspensions were removed, log10 diluted, and plated on Trypticase Soya Agar with phosphatidylcholine and Tween 80 to determine minimum bactericidal or fungicidal concentration (MBC or MFC). […] Geometric mean MIC of the peptoids were calculated to evaluate the broad overview of antimicrobial activity across the pathogens.

[2] = test system: P. aeruginosa 216; conditions: P. aeruginosa 216; CAMHB, 37°C, 16–20 h
Description: as §1

[3] = test system: E. coli 0010; conditions: E. coli 0010; CAMHB, 37°C, 16–20 h
Description: as §1

[4] = test system: E. coli 0015; conditions: E. coli 0015; CAMHB, 37°C, 16–20 h
Description: as §1

[5] = test system: K. pneumoniae JIE2709; conditions: K. pneumoniae JIE2709; CAMHB, 37°C, 16–20 h
Description: as §1

[6] = test system: P. aeruginosa 33; conditions: P. aeruginosa 33; CAMHB, 37°C, 16–20 h
Description: as §1

[7] = test system: K. pneumoniae JIE2713; conditions: K. pneumoniae JIE2713; CAMHB, 37°C, 16–20 h
Description: as §1

[8] = test system: En. cloacae 003; conditions: En. cloacae 003; CAMHB, 37°C, 16–20 h
Description: as §1

[9] = test system: E. coli 0011; conditions: E. coli 0011; CAMHB, 37°C, 16–20 h
Description: as §1

[10] = test system: P. aeruginosa AR-1270; conditions: P. aeruginosa AR-1270; CAMHB, 37°C, 16–20 h
Description: as §1

[11] = test system: K. pneumoniae JIE4212; conditions: K. pneumoniae JIE4212; CAMHB, 37°C, 16–20 h
Description: as §1

[12] = test system: E. coli 005; conditions: E. coli 005; CAMHB, 37°C, 16–20 h
Description: as §1

[13] = test system: En. cloacae 005; conditions: En. cloacae 005; CAMHB, 37°C, 16–20 h
Description: as §1

[14] = test system: K. pneumoniae JIE2713; experiment: Checkerboard microdilution synergy test; assay type: cell-based, Klebsiella pneumoniae; conditions: for MIC: Klebsiella pneumoniae, read-out: MIC of DrugB (alone, checkerboard); for FICDrugB / MF of antibiotic (modulation factor) / MIC of DrugB + TM8: in combination with TM8
Description: (§2) Then, 10 µl of bacteria (5 × 10^6 CFU ml^−1) or C. auris (2.5 × 10^4 CFU ml^−1) were added to each well, except for the sterility control well. […] The sterility control wells contained only MHB (or RPMI in case of C. auris), and the growth control contained 110 µl of microbial inoculum with no antimicrobials. Subsequently, the plates were incubated for 18- 24 hours at 36 ± 1 °C.
(§3) The FIC for each combination interaction was calculated as follows:
(§4) Then, the summation of FIC (ƩFIC) was calculated for each antimicrobial combination as follows: ƩFIC = FICA + FICB. […] All antimicrobial synergy experiments were repeated in at least two independent runs.

[15] = test system: A. baumannii 008; conditions: A. baumannii 008; CAMHB, 37°C, 16–20 h
Description: as §1

[16] = test system: A. baumannii 005; conditions: A. baumannii 005; CAMHB, 37°C, 16–20 h
Description: as §1

[17] = test system: A. baumannii 006; conditions: A. baumannii 006; CAMHB, 37°C, 16–20 h
Description: as §1

[18] = test system: A. baumannii 007; conditions: A. baumannii 007; CAMHB, 37°C, 16–20 h
Description: as §1

[19] = test system: A. baumannii ATCC 19 606; conditions: A. baumannii ATCC 19 606; CAMHB, 37°C, 16–20 h
Description: as §1

[20] = test system: K. pneumoniae JIE2709; experiment: Checkerboard microdilution synergy test; assay type: cell-based, Klebsiella pneumoniae; conditions: for MIC: Klebsiella pneumoniae, read-out: MIC of DrugB (alone, checkerboard); for FICDrugB / MF of antibiotic (modulation factor) / MIC of DrugB + TM8: in combination with TM8
Description: as §2, §3, §4

For `C[C@H]1[C@H](NC(=O)/C(=N\OC(C)(C)C(=O)O)c2csc(N)n2)C(=O)N1S(=O)(=O)O` [Azt, aztreonam, reference compound], the MIC of antibiotics [1] was 4 µg/mL, the MIC of antibiotics [2] was 4 µg/mL and the MIC of antibiotics [3] was 2 µg/mL. The MIC of antibiotics [4] was 0.5 µg/mL, the MIC of antibiotics [5] was greater than 128 µg/mL and the MIC of antibiotics [6] was 128 µg/mL. The MIC of antibiotics [7] was 128 µg/mL, the MIC of antibiotics [8] was 4 µg/mL and the MIC of antibiotics [9] was 4 µg/mL. The MIC of antibiotics [10] was greater than 128 µg/mL, the MIC of antibiotics [11] was greater than 128 µg/mL and the MIC of antibiotics [12] was 0.5 µg/mL. The MIC of antibiotics [13] was 16 µg/mL, the MIC [14] was 128 µg/mL and the FICDrugB [14] was 0.5. For the same compound, the “MF of antibiotic (modulation factor)” value [14] was 2 and the “MIC of DrugB + TM8” value [14] was 64 µg/mL.

Compound `CC(C)(O/N=C(\C(=O)N[C@@H]1C(=O)N2C(C(=O)[O-])=C(C[n+]3ccccc3)CS[C@H]12)c1csc(N)n1)C(=O)O` [Cefaz, ceftazidime, reference compound] has an MIC of antibiotics [1] of 4 µg/mL, an MIC of antibiotics [2] of 2 µg/mL and an MIC of antibiotics [3] of 2 µg/mL. It also gave an MIC of antibiotics [4] of 0.5 µg/mL, an MIC of antibiotics [15] of 512 µg/mL and an MIC of antibiotics [16] of 512 µg/mL. It also gave an MIC of antibiotics [17] of 512 µg/mL, an MIC of antibiotics [5] of 32 µg/mL and an MIC of antibiotics [18] of 512 µg/mL. It also gave an MIC of antibiotics [6] of 32 µg/mL, an MIC of antibiotics [7] greater than 512 µg/mL and an MIC of antibiotics [8] of 4 µg/mL. For the same compound, the MIC of antibiotics [9] was 4 µg/mL, the MIC of antibiotics [10] was greater than 512 µg/mL and the MIC of antibiotics [19] was 8 µg/mL. The MIC of antibiotics [11] was greater than 512 µg/mL, the MIC of antibiotics [12] was 0.25 µg/mL and the MIC of antibiotics [13] was 128 µg/mL.

With `CO/N=C(\C(=O)N[C@@H]1C(=O)N2C(C(=O)O)=C(COC(C)=O)CS[C@H]12)c1csc(N)n1` [Cefot, cefotaxime, reference compound] the MIC of antibiotics [1] was 4 µg/mL, the MIC of antibiotics [3] was 2 µg/mL and the MIC of antibiotics [4] was 0.5 µg/mL. For the same compound, the MIC of antibiotics [15] was 512 µg/mL, the MIC of antibiotics [16] was 512 µg/mL and the MIC of antibiotics [17] was 512 µg/mL. The MIC of antibiotics [5] was 32 µg/mL, the MIC of antibiotics [18] was 512 µg/mL and the MIC of antibiotics [7] was greater than 512 µg/mL. The MIC of antibiotics [8] was 8 µg/mL, the MIC of antibiotics [9] was 4 µg/mL and the MIC of antibiotics [19] was 8 µg/mL. It also gave an MIC of antibiotics [11] greater than 512 µg/mL, an MIC of antibiotics [12] of 0.25 µg/mL and an MIC of antibiotics [13] of 128 µg/mL. For the same compound, the MIC [20] was 32 µg/mL, the FICDrugB [20] was 0.5 and the “MF of antibiotic (modulation factor)” value [20] was 2. The “MIC of DrugB + TM8” value [20] was 16 µg/mL, the MIC [14] was 1020 µg/mL and the FICDrugB [14] was 0.5. For the same compound, the “MF of antibiotic (modulation factor)” value [14] was 2 and the “MIC of DrugB + TM8” value [14] was 512 µg/mL.

For `O=C(O)c1cn(C2CC2)c2cc(N3CCNCC3)c(F)cc2c1=O` [Cip, ciprofloxacin], the FICDrugB [20] was 0.5, the “MF of antibiotic (modulation factor)” value [20] was 2 and the FICDrugB [14] was 0.023. For the same compound, the “MF of antibiotic (modulation factor)” value [14] was 4 and the “MIC of DrugB + TM8” value [14] was 32 µg/mL.

`CNC(C)C1CCC(N)C(OC2C(N)CC(N)C(OC3OCC(C)(O)C(NC)C3O)C2O)O1` (stereo not shown) [Gen, gentamicin, reference compound] was tested, and the MIC of antibiotics [1] was 4 µg/mL, the MIC of antibiotics [3] was 0.25 µg/mL and the MIC of antibiotics [4] was 0.5 µg/mL. For the same compound, the MIC of antibiotics [15] was greater than 128 µg/mL, the MIC of antibiotics [16] was greater than 128 µg/mL and the MIC of antibiotics [17] was greater than 128 µg/mL. The MIC of antibiotics [5] was 0.5 µg/mL, the MIC of antibiotics [18] was greater than 128 µg/mL and the MIC of antibiotics [6] was greater than 128 µg/mL. It also gave an MIC of antibiotics [7] greater than 128 µg/mL, an MIC of antibiotics [8] of 0.5 µg/mL and an MIC of antibiotics [9] of 0.5 µg/mL. It also gave an MIC of antibiotics [10] greater than 128 µg/mL, an MIC of antibiotics [19] of 4 µg/mL and an MIC of antibiotics [11] of 128 µg/mL. The MIC of antibiotics [12] was 0.25 µg/mL, the MIC of antibiotics [13] was 0.25 µg/mL and the MIC [14] was 1020 µg/mL. The FICDrugB [14] was 0.5, the “MF of antibiotic (modulation factor)” value [14] was 2 and the “MIC of DrugB + TM8” value [14] was 512 µg/mL.

`C[C@@H](O)[C@H]1C(=O)N2C(C(=O)O)=C(S[C@@H]3CN[C@H](C(=O)N(C)C)C3)[C@H](C)[C@H]12` [Mer, meropenem, reference compound] showed an MIC of antibiotics [1] of 1 µg/mL, an MIC of antibiotics [2] of 1 µg/mL and an MIC of antibiotics [3] of 2 µg/mL. It also gave an MIC of antibiotics [4] of 2 µg/mL, an MIC of antibiotics [15] of 64 µg/mL and an MIC of antibiotics [16] greater than 64 µg/mL. For the same compound, the MIC of antibiotics [17] was 64 µg/mL, the MIC of antibiotics [5] was 32 µg/mL and the MIC of antibiotics [18] was 64 µg/mL. It also gave an MIC of antibiotics [6] of 4 µg/mL, an MIC of antibiotics [7] greater than 64 µg/mL and an MIC of antibiotics [8] of 1 µg/mL. It also gave an MIC of antibiotics [9] of 1 µg/mL, an MIC of antibiotics [10] greater than 64 µg/mL and an MIC of antibiotics [19] of 0.5 µg/mL. It also gave an MIC of antibiotics [11] of 1 µg/mL, an MIC of antibiotics [12] of 2 µg/mL and an MIC of antibiotics [13] of 0.25 µg/mL. The MIC [20] was 32 µg/mL, the FICDrugB [20] was 0.125 and the “MF of antibiotic (modulation factor)” value [20] was 8. The “MIC of DrugB + TM8” value [20] was 4 µg/mL.

colistin sulfate [reference compound] was tested, and the MIC of antibiotics [1] was 2 µg/mL, the MIC of antibiotics [2] was 16 µg/mL and the MIC of antibiotics [3] was 2 µg/mL. For the same compound, the MIC of antibiotics [4] was 0.25 µg/mL, the MIC of antibiotics [15] was 1 µg/mL and the MIC of antibiotics [16] was 0.25 µg/mL. For the same compound, the MIC of antibiotics [17] was 0.25 µg/mL, the MIC of antibiotics [5] was 1 µg/mL and the MIC of antibiotics [18] was 1 µg/mL. The MIC of antibiotics [6] was 1 µg/mL, the MIC of antibiotics [7] was 1 µg/mL and the MIC of antibiotics [8] was 1 µg/mL. For the same compound, the MIC of antibiotics [9] was 2 µg/mL, the MIC of antibiotics [10] was 1 µg/mL and the MIC of antibiotics [19] was 2 µg/mL. For the same compound, the MIC of antibiotics [11] was 1 µg/mL, the MIC of antibiotics [12] was 0.25 µg/mL and the MIC of antibiotics [13] was 2 µg/mL.

polymyxin B [PmB, reference compound] showed an MIC of antibiotics [1] of 2 µg/mL, an MIC of antibiotics [2] of 16 µg/mL and an MIC of antibiotics [3] of 2 µg/mL. For the same compound, the MIC of antibiotics [4] was 0.25 µg/mL, the MIC of antibiotics [15] was 1 µg/mL and the MIC of antibiotics [16] was 0.25 µg/mL. It also gave an MIC of antibiotics [17] of 0.25 µg/mL, an MIC of antibiotics [5] of 1 µg/mL and an MIC of antibiotics [18] of 1 µg/mL. The MIC of antibiotics [6] was 2 µg/mL, the MIC of antibiotics [7] was 1 µg/mL and the MIC of antibiotics [8] was 1 µg/mL. It also gave an MIC of antibiotics [9] of 2 µg/mL, an MIC of antibiotics [10] of 2 µg/mL and an MIC of antibiotics [19] of 2 µg/mL. For the same compound, the MIC of antibiotics [11] was 1 µg/mL, the MIC of antibiotics [12] was 0.25 µg/mL and the MIC of antibiotics [13] was 2 µg/mL.
